According to the supplement of paper PMC10307832:

Tests used:
Assay in all cases: relative viability (nuclei count vs DMSO), 5 days (fraction); higher = more cells survive
[1] = compound: CS(=O)(=O)c1ccc(C(=O)Nc2ccc(Cl)c(-c3ccccn3)c2)c(Cl)c1 [Vismodegib] + CS(=O)(=O)N1CCN(Cc2cc3nc(-c4cccc5[nH]ncc45)nc(N4CCOCC4)c3s2)CC1 [Pictilisib] (partner 1 µM)
Summary of the method: (§1)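 Relative viability divides the nuclei count in treated wells by that in vehicle wells. Lung cancer cell lines were seeded in 1536-well plates, dosed by pin tool the next day, and fixed and stained after 5 days in one step with final 0.05% Triton X-100, 1% formaldehyde and 1 ug/ml Hoechst. Dosing was a single drug or a fixed anchor-drug dose plus five library-drug doses (not always all listed) in √10 steps, and values are medians of duplicate plates imaged at 4×.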

[2] = compound: N#CC[C@H](C1CCCC1)n1cc(-c2ncnc3[nH]ccc23)cn1 [Ruxolitinib] + CC(=O)Nc1cccc(-n2c(=O)n(C3CC3)c(=O)c3c(Nc4ccc(I)cc4F)n(C)c(=O)c(C)c32)c1 [Trametinib] (partner 0.02 µM)
Summary of the method: as §1

[3] = compound: CS(=O)(=O)c1ccc(-c2cnc(N)c(C(=O)Nc3ccccc3)n2)cc1 [VE-821] + O=C(c1cc(Cc2n[nH]c(=O)c3ccccc23)ccc1F)N1CCN(C(=O)C2CC2)CC1 [Olaparib] (partner 8 µM)
Summary of the method: as §1

[4] = compound: CS(=O)(=O)c1ccc(C(=O)Nc2ccc(Cl)c(-c3ccccn3)c2)c(Cl)c1 [Vismodegib] + Nc1nc2[nH]cc(CCc3ccc(C(=O)N[C@@H](CCC(=O)O)C(=O)O)cc3)c2c(=O)[nH]1 [Pemetrexed] (partner 0.2 µM)
Summary of the method: as §1

| Cell Line | relative viability ([1]; first compound 0.08 µM) | relative viability ([1]; first compound 0.253 µM) | relative viability ([1]; first compound 0.8 µM) | relative viability ([1]; first compound 2.53 µM) | relative viability ([1]; first compound 8 µM) | relative viability ([2]; first compound 0.08 µM) | relative viability ([2]; first compound 0.253 µM) | relative viability ([2]; first compound 0.8 µM) | relative viability ([2]; first compound 2.53 µM) | relative viability ([2]; first compound 8 µM) | relative viability ([3]; first compound 0.08 µM) | relative viability ([3]; first compound 0.253 µM) | relative viability ([3]; first compound 0.8 µM) | relative viability ([3]; first compound 2.53 µM) | relative viability ([3]; first compound 8 µM) | relative viability ([4]; first compound 0.08 µM) | relative viability ([4]; first compound 0.253 µM) | relative viability ([4]; first compound 0.8 µM) | relative viability ([4]; first compound 2.53 µM) | relative viability ([4]; first compound 8 µM) |
| --- | --- | --- | --- | --- | --- | --- | --- | --- | --- | --- | --- | --- | --- | --- | --- | --- | --- | --- | --- | --- |
| COR-L23 | 0.803 | 0.658 | 0.714 | 0.675 | 0.786 | 0.766 | 0.616 | 0.878 | 0.276 | 0.508 | 0.372 | 0.346 | 0.221 | 0.304 | 0.182 | 0.195 | 0.19 | 0.184 | 0.195 | 0.207 |
| RERF-LC-KJ | 0.585 | 0.496 | 0.663 | 0.567 | 0.561 | 0.797 | 0.978 | 0.939 | 0.834 | 0.906 | 0.946 | 0.819 | 0.851 | 0.698 | 0.49 | 0.491 | 0.454 | 0.468 | 0.508 | 0.479 |
| NCI-H1437 | 0.504 | 0.487 | 0.47 | 0.536 | 0.483 | 0.528 | 0.632 | 0.732 | 0.564 | 0.455 | 0.66 | 0.739 | 0.628 | 0.525 | 0.386 | 0.297 | 0.308 | 0.339 | 0.288 | 0.316 |
| NCI-H1915 | 0.997 | 1.01 | 0.851 | 0.826 | 0.727 | 0.315 | 0.311 | 0.325 | 0.153 | 0.253 | 0.274 | 0.274 | 0.201 | 0.202 | 0.152 | 0.464 | 0.434 | 0.515 | 0.444 | 0.49 |
| SK-MES-1 | 0.358 | 0.348 | 0.363 | 0.348 | 0.344 | 0.561 | 0.596 | 0.587 | 0.315 | 0.516 | 0.885 | 0.747 | 0.638 | 0.531 | 0.243 | 0.853 | 0.928 | 0.871 | 0.972 | 0.825 |
| NCI-H522 | – | – | – | – | – | 0.729 | 0.767 | 0.964 | 0.678 | 0.708 | 0.627 | 0.698 | 0.645 | 0.657 | 0.594 | 1.18 | 0.731 | 1.01 | 0.836 | 0.988 |
| NCI-H1299 | 0.761 | 0.815 | 0.72 | 0.787 | 0.96 | – | – | – | – | – | 1.04 | 1.01 | 1.07 | 0.896 | 0.527 | – | – | – | – | – |
| NCI-H1651 | 0.579 | 0.549 | 0.523 | 0.54 | 0.637 | 0.722 | 0.798 | 0.821 | 0.767 | 0.859 | 0.187 | 0.204 | 0.19 | 0.163 | 0.165 | 0.518 | 0.65 | 0.594 | 0.473 | 0.48 |
| EBC-1 | 0.38 | 0.433 | 0.386 | 0.426 | 0.433 | – | – | – | – | – | 0.75 | 0.774 | 0.74 | 0.562 | 0.416 | – | – | – | – | – |
| NCI-H2342 | – | – | – | – | – | 0.762 | 0.872 | 0.808 | 0.807 | 0.816 | 0.474 | 0.469 | 0.379 | 0.521 | 0.431 | 0.769 | 0.821 | 0.81 | 0.611 | 0.719 |
| Calu-6 | 0.934 | 0.915 | 0.886 | 0.918 | 0.859 | – | – | – | – | – | 0.626 | 0.597 | 0.566 | 0.386 | 0.226 | – | – | – | – | – |
| NCI-H1703 | 0.223 | 0.216 | 0.302 | 0.254 | 0.249 | – | – | – | – | – | 0.417 | 0.506 | 0.416 | 0.462 | 0.437 | – | – | – | – | – |
| NCI-H1563 | 0.649 | 0.591 | 0.647 | 0.643 | 0.72 | – | – | – | – | – | – | – | – | – | – | 0.458 | 0.806 | 0.767 | 0.762 | 0.839 |
| IA-LM | 0.363 | 0.354 | 0.277 | 0.281 | 0.379 | – | – | – | – | – | 0.852 | 0.734 | 0.832 | 0.801 | 0.36 | – | – | – | – | – |
| SW 900 | – | – | – | – | – | 0.597 | 0.742 | 1.09 | 0.614 | 0.902 | 0.936 | 0.941 | 0.768 | 0.786 | 0.606 | 0.496 | 0.472 | 0.495 | – | 0.496 |
| NCI-H727 | 0.525 | 0.395 | 0.277 | 0.257 | 0.402 | 0.406 | 0.407 | 0.413 | 0.416 | 0.453 | 0.725 | 0.694 | 0.765 | 0.682 | 0.66 | – | – | – | – | – |
| ABC-1 | 0.602 | 0.841 | 0.712 | 0.757 | 0.772 | – | – | – | – | – | 0.776 | 0.873 | 0.755 | 0.869 | 0.757 | – | – | – | – | – |
| NCI-H1648 | – | – | – | – | – | 0.548 | 0.517 | 0.62 | 0.416 | 0.74 | 1.14 | – | 0.909 | 0.922 | 0.468 | 0.679 | 0.832 | 0.731 | 0.782 | 0.702 |
| A549 | 0.507 | 0.465 | 0.478 | 0.56 | 0.432 | – | – | – | – | – | 0.431 | 0.291 | 0.195 | 0.262 | 0.207 | – | – | – | – | – |
